From ChEMBL document CHEMBL1127385, “Synthesis and diuretic activity of alkyl- and arylguanidine analogs of N,N'-dicyclohexyl-4-morpholinecarboxamidine in rats and dogs” (J Med Chem, 1994)

Tests used:
[1] = system: Rattus norvegicus; experiment: Ratio of Total electrolytic excretion of sodium and potassium in urine of rats after peroral administration of 68.1 uM/Kg of drug; format: ADME, organism-based; conditions: in vivo, po
[2] = system: Canis familiaris; experiment: Tested for the diuretic activity by measuring the urinary volume after peroral administering 34.1 uM/Kg of drug in dogs; conditions: dog, in vivo, po
[3] = system: Canis familiaris; experiment: Total electrolytic excretion of potassium in urine of dogs after intravenous administration of 9.09 uM/Kg of drug; format: ADME, organism-based, Canis lupus familiaris; conditions: dog, in vivo
[4] = species on record: Canis familiaris; experiment: Systemic cardio vascular Hemodynamics of heart rate was measured in Beagle dogs after giving the dose of MNX; format: functional, Canis lupus familiaris
[5] = system: Rattus norvegicus; experiment: Tested for the diuretic activity by measuring the urinary volume after peroral administering 34.1 uM/Kg of drug in rats; format: ADME, organism-based, Urine; conditions: in vivo, po
[6] = system: Canis familiaris; experiment: Total electrolytic excretion of sodium in urine of dogs after intravenous administration of 9.09 uM/Kg of drug; format: ADME, organism-based, Canis lupus familiaris; conditions: dog, in vivo
[7] = system: Rattus norvegicus; experiment: Tested for the diuretic activity by measuring the urinary volume after peroral administering 102 uM/Kg of drug in rats; format: ADME, organism-based, Urine; conditions: in vivo, po
[8] = species on record: Canis familiaris; experiment: Systemic cardio vascular Hemodynamics of stroke index was measured in Beagle dogs after giving the dose of MNX plus the drug; format: functional, Canis lupus familiaris, Heart
[9] = species on record: Canis familiaris; experiment: Systemic cardio vascular Hemodynamics of stroke index was measured in Beagle dogs in pretreatment control group; format: functional, Canis lupus familiaris, Heart
[10] = species on record: Canis familiaris; experiment: Systemic cardio vascular Hemodynamics of cardiac index was measured in Beagle dogs after giving the dose of MNX plus the drug; format: functional, Canis lupus familiaris, Heart
[11] = system: Rattus norvegicus; experiment: Tested for the diuretic activity by measuring the urinary volume after peroral administering 341 uM/Kg of drug in rats; format: ADME, organism-based, Urine; conditions: in vivo, po
[12] = species on record: Canis familiaris; experiment: Tissue vascular resistance of large intestine was measured in Beagle dogs after giving the dose of MNX; format: functional, Canis lupus familiaris
[13] = system: Canis familiaris; experiment: Tested for the diuretic activity by measuring the urinary volume after peroral administering 34.1 uM/Kg of drug in dogs; format: ADME, organism-based, Canis lupus familiaris, Urine; conditions: dog, in vivo, po
[14] = system: Canis familiaris; experiment: Total electrolytic excretion of potassium in urine of dogs after intravenous administration of 34.1 uM/Kg of drug; format: ADME, organism-based, Canis lupus familiaris; conditions: dog, in vivo
[15] = system: Rattus norvegicus; experiment: Total electrolytic excretion of potassium in urine of rats after peroral administration of 50.8 uM/Kg of drug; format: ADME, organism-based; conditions: in vivo, po
[16] = species on record: Canis familiaris; experiment: Systemic cardio vascular Hemodynamics of mean arterial pressure was measured in Beagle dogs after giving the dose of MNX; format: functional, Canis lupus familiaris, Heart
[17] = system: Canis familiaris; experiment: Total electrolytic excretion of chlorine in urine of dogs after peroral administration of 34.1 uM/Kg of drug; format: ADME, organism-based, Canis lupus familiaris; conditions: dog, in vivo, po
[18] = species on record: Canis familiaris; experiment: Tissue vascular resistance of large intestine was measured in Beagle dogs before treatment; format: functional, Canis lupus familiaris
[19] = system: Canis familiaris; experiment: Tested for the diuretic activity by measuring the urinary volume after intravenous administering 3.03 uM/Kg of drug in dogs; format: ADME, organism-based, Canis lupus familiaris, Urine; conditions: dog, in vivo
[20] = species on record: Canis familiaris; experiment: Systemic cardio vascular Hemodynamics of total peripheral resistance was measured in Beagle dogs after giving the dose of MNX plus the drug; format: functional, Canis lupus familiaris, Heart

C1CCC(N=C(NC2CCCCC2)N2CCOCC2)CC1
Ratio [1]: 8.6
V [2]: 81 mL
Excretion K+ [3]: 1.7 m equiv
HR [4]: 138 beats min-1
V [5]: 6.6 mL
Excretion Na+ [6]: 11.5 m equiv
V [7]: 10 mL
SI [8]: 1.1 ml beat-1 kg-1
SI [9]: 2.2 ml beat-1 kg-1
CI [10]: 138 mL/min/kg
V [11]: 10.2 mL
TVR [12]: 116 mmHg·min·g/mL
V [13]: 77 mL
Excretion K+ [14]: 1.3 m equiv
Excretion K+ [15]: 1.9 m equiv
MAP [16]: 75 mmHg
Excretion Cl- [17]: 9.4 m equiv
TVR [18]: 264 mmHg·min·g/mL
V [19]: 64 mL
TPR [20]: 0.91 mmHg·min·kg/mL
